# Like-named read-outs stand apart in the source and are kept apart here.
# Tests used:
# Panc-2H4 cells = assay: Human Panc-2H4 insulin suppression assay; type: cell-based
# Source text: Two different assays for “classical” sstr2 functions were adopted: (1) cultured foetal rat pituitary cells secreted growth hormone which is inhibited by sstr2 agonists in a dose-dependent fashion and (2) selected glucose-sensitive sub-clones of the human Panc-1 cell line secrete insulin which is inhibited by sstr2 agonists in a dose-dependent fashion.
# Glucose-sensitive sub-clones of the human Panc-1, a cell line derived from a pleiomorphic epithelioid carcinoma of the exocrine pancreas, were obtained essentially as described by Hamil et al. (2008) Biomed. Sci. Instrum. 44:441-6. Briefly, Panc-1 cells were subcultured in 24 well plates, and the medium was supplemented with an additional 5% glucose. […] The resulting sub-lines were then tested for glucose sensitivity by preparing wells of a 96-well plate (5×10^4 cells per well) which were then exposed to cultured medium containing a range of glucose concentrations (low glucose DMEM, DMEM, DMEM+1% glucose, DMEM+2.5% glucose and DMEM+5% glucose). After 24 hrs incubation, the conditioned medium was collected and assayed for insulin secretion by ELISA (Linco; cat# EZHI-14K) in accordance with the manufacturer's instructions. […] Further 96 well plates were prepared using Panc-2H4 (5×10^4 cells per well) in DMEM. After 24 hrs, the medium was switched to DMEM+5% glucose containing various test agents at various concentrations (triplicate wells per condition). After a further 24 hrs, the conditioned medium was harvested and the concentration of insulin was determined by ELISA as described above.
# Results were reported as the mean SD, expressed as the fold change from cells in the presence of vehicle only.
# sstr2 = molecular target: T1, sstr2 (Homo sapiens, UniProt P30874); assay: [3H]-BN83250 equilibrium binding to THP-1 cells (Scatchard/competition); conditions: THP-1 cells, 2 hours at 4° C.; read-out: affinity (Scatchard analysis)
# T1 construct: with 1×10^6 THP-1 cells in Gey's Balanced Salt Solution, 10 nM [^3H]-BN83250; endogenous in cells; host or cells: THP-1 cells (intact cells, 4 °C)
# Description: Methods: [^3H]-BN83250 was synthesesized from (S,E)-3-(2′,2′-dimethyldodec-4′-enoylamino)-caprolactam by catalytic hydrogenation using tritium gas over a palladium catalyst (CRB Ltd, Cleveland, UK), yielding the tritiated product at a concentration of 270 μM in ethanol with a specific activity of 220Ci/mmol. The (S,E)-3-(2′,2′-dimethyldodec-4′-enoylamino)-caprolactam was prepared as follows: (S,S)-3-amino-caprolactam hydro-pyrrolidine-5-carboxylate (10 mmol) and Na2CO3 (30 mmol) in water (30 ml) were added to a solution of 2,2-dimethyl-dodec-4-enoyl chloride (10 mmol) in dichloromethane (30 ml) at ambient temperature and the reaction was stirred for 12 hours. The organic layer was then separated and the aqueous phase was extracted with additional dichloromethane (2×25 ml). The combined organic layers were dried over Na2CO3 and reduced in vacuo. The residue was purified by silica column chromatography (1:1 EtOAc:hexanes to EtOAc) to give (S,E)-3-(2′,2′-dimethyl-dodec-4′-enoyl)amino-caprolactam as a colourless oil (2.12 g, 63%). The radiolabelled compound was stored in the dark at 4° C. until required. Prior to use the specific activity was adjusted by addition of unlabelled BN83250.
# For the analysis of binding, individual reactions were set up (in triplicate for each condition), with 1×10^6 THP-1 cells in Gey's Balanced Salt Solution, 10 nM [^3H]-BN83250 (at 50 Ci/mmol) and various concentrations of (S)-3(2′2′-dimethylpropionoylamino)-tetrahydropyridin-2-one (10 pM to 10 μM). Excess (100 μM) unlabelled BN83250 was used to determine the level of non-specific binding. After 2 hours at 4° C. (conditions previously shown to achieve equilibrium binding, and which prevent uptake of the radioligand that would result in an over-estimate of binding) excess label was washed away by centrifugation (3 washes with 5 ml of Gey's Balanced Salt Solution) and the bound radioactivity was determined by scintillation counting of the solubilised cell pellet.
# Hits from this assay were confirmed using conventional Scatchard analysis, exactly as described in Example 4 above.
# [1] = system: rat peripheral blood leukocytes; assay: Rat chemokine-induced PBMC migration assay; type: cell-based
# Description: Similarly, where human Panc-2H4 cells are used to determine the effect of agents on classical sstr2 targets, the result is compared with the effect of the same agents on chemokine-induced migration of human THP-1 cells. […] For this reason, the ratio of “classical” to “BSCI” activity in Table 3 is calculated separately for rat and human.
# TNF-alpha = assay: Sub-lethal endotoxemia model, serum TNF-alpha after LPS; type: in vivo, mouse; conditions: dose-dependent; BN83250 s.c., valerolactam oral gavage
# Description: We selected the sub-lethal endotoxemia model in mouse, because this has been well characterised in our laboratory (see for example Fox et al. (2002) J. Med. Chem. 45:360-70; Fox et al. (2005) J. Med. Chem. 48:867-74). The extent of systemic inflammation in response to a single intraperitoneal injection of bacterial lipopolysaccharide (LPS) can be estimated by measuring serum TNF-alpha 2 hours post challenge.
# Methods: Mice (CD1 strain; adult males; 6 per group) were treated with BSCI (in an appropriate vehicle) or with vehicle alone by an appropriate route. […] Simultaneously, one set of mice at each BSCI concentration received BIM 23627 at 4 mg/animal (120 mg/kg) by sub-cutaneous injection (a treatment condition known to suppress classical sstr2-mediated signalling, such as GH release, in rats; Tulipano et al. (2002) 143:1218-24). Between 30 mins and 1 hour after dosing (a period when a maximal plasma concentration of BSCI has been achieved), the inflammatory challenge was elicited by intraperitoneal injection of 750 μg of LPS (Sigma; L4130 lot#024K4077; 900,000 EU/mg).
# After a further 2 hours, the animals were sacrificed by CO2 asphyxiation, and blood was drawn by cardiac puncture. Serum was prepared by conventional methods, and the level of TNF-alpha in serum was measured using an ELISA (R&D Systems; Murine Quantikine code# MTA00) performed in accordance with the manufacturer's instructions.
# THP-1 cells = assay: MCP-1 induced THP-1 cell migration (Transwell/ChemoTx)
# Description: Leukocyte migration was measured using the 96-well format micro Transwell® assay system from Neuroprobe (Gaithersburg, Md., USA). In principle, this assay consists of two chambers separated by a porous membrane. The chemoattractant is placed in the lower compartment and the cells are placed in the upper compartment.
# First, the cell suspension to be placed in the upper compartment was prepared. The THP-1 cells were pelleted by centrifugation (770×g; 4 mins) and washed with Geys Balanced Salt Solution with 1 mg/ml BSA (GBSS+BSA). This wash was then repeated, and the cells re-pelleted before being resuspended in a small volume of GBSS+BSA for counting, for example using a standard haemocytometer.
# This ensured that there were 100,000 THP-1 cells in each 25 μl of the solution to be placed in the upper chamber of the plate.
# To the third pot, GBSS+BSA plus vehicle as appropriate was added so that the volumes in three pots are equal, acting as a control.
# Next, the chemoattractant solution to be placed in the lower compartment was prepared. […] This solution was divided into three pots, as for the cell suspension. To one pot, the BSCI was added to the same final concentration as was added to the cell suspension, in the second pot the BSCI and the sstr2 antagonist were both added at the same concentration as previously added to the cell suspension, while to the remaining pot GBSS+BSA plus vehicle as appropriate was added so that the volumes in the three pots were equal.
# Once the chemoattractant solutions for the lower wells and cell solutions for the upper chambers were prepared, the migration chamber was assembled. 29 μl of the appropriate chemoattractant solution was placed into the lower well of the chamber. Assays were performed with at least triplicate determinations of each condition. Once all the lower chambers were filled, the porous membrane was applied to the chamber in accordance with the manufacturer's instructions. Finally, 25 μl of the appropriate cell solution was applied to each upper chamber. A plastic lid was placed over the entire apparatus to prevent evaporation.
# The assembled chamber was incubated at 37° C., 5% CO2, for 2 hours.
# At the end of the incubation, the liquid cell suspension was gently removed from the upper chamber, 20 μl of ice-cold 20 mM EDTA in PBS was added to the upper chamber, and the apparatus was incubated at 4° C. for 15 mins. This procedure caused any cells adhering to the underside of the membrane to fall into the lower chamber.
# After this incubation the filter was carefully flushed with GBSS+BSA to wash off the EDTA, and then the filter was removed.
# The number of cells migrated into the lower chamber under each condition can then be determined by a number of methods, including direct counting, labelling with fluorescent or radioactive markers or through the use of a vital dye. Typically, we utilised the vital dye MTT. 3 μl of stock MTT solution were added to each well, and then the plate was incubated at 37° C. for 1-2 hours during which time dehydrogenase enzymes within the cells converted the soluble MTT to an insoluble blue formazan product that could be quantified spectrophotometrically.
# In parallel, an 8-point standard curve was set up. Starting with the number of cells added to each upper chamber (100,000) and going down in 2-fold serial dilutions in GBSS+BSA, the cells were added to a plate in 25 with 3 μl of MTT stock solution added. The standard curve plate was incubated along side the migration plate. At the end of this incubation, the liquid was carefully removed from the lower chambers, taking care not to disturb the precipitated formazan product.
# The MCP-1 stimulated migration was determined by subtracting the average number of cells that reached the lower compartment in wells where no MCP-1 was added from the average number of cells that reached the lower compartment where MCP-1 was present at 25 ng/ml.
# T1 sequence (P30874 whole entry): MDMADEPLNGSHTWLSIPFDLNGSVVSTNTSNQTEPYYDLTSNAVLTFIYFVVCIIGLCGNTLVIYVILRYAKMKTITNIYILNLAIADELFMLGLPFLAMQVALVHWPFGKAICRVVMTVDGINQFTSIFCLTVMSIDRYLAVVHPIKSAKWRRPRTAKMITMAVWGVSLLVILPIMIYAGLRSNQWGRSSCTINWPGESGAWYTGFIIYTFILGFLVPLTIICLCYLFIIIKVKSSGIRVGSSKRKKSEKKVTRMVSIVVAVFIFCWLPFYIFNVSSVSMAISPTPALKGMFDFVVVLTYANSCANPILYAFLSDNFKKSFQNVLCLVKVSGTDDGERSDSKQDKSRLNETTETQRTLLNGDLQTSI
substance,measurement,setting,value
"(S)-3-(2′,2′-dimethyldodecanoyl)amino-caprolactam [BN83250]",EC50,"Panc-2H4 cells; Table 3, read-out: Human Panc-2H4 insulin suppression assay ED50",1 µM
same,Human Panc-2H4 insulin suppression assay Max effect,"Panc-2H4 cells; Table 3, suppression compared to vehicle",28%
same,Panc-2H4 insulin suppression assay Max Effect,Panc-2H4 cells; Table 5,28%
same,EC50,"Panc-2H4 cells; Table 5, read-out: Panc-2H4 insulin suppression assay (“classical” target) ED50",1 µM
same,inhibition of insulin secretion by Panc-2H4,Panc-2H4 cells; highest concentrations tested,None of these agents inhibited insulin secretion
same,Kd,sstr2,~0.08 µM
same,"“Classical”:“BSCI” potency ratio, Rat",[1]; PBMC migration ED50 versus pituicyte GH ED50,0.0009
same,Rat chemokine-induced PBMC migration assay Max effect,[1]; Table 3,100%
same,inhibition of LPS-induced systemic inflammation,TNF-alpha,dramatically inhibited
same,"“Classical”:“BSCI” potency ratio, Human",THP-1 cells; THP-1 migration ED50 versus Panc-2H4 insulin ED50,<0.00009
same,Human chemokine-induced THP-1 migration assay Max effect,THP-1 cells; Table 3,100%
same,Chemokine-induced THP-1 cell migration assay Max Effect,THP-1 cells; Table 5,100%
same,RATIO,"THP-1 cells; Table 5, migration ED50 versus insulin ED50",<0.00009
